Laboratory results as given in ChEMBL document CHEMBL5150017, “Mechanism of Action and Structure-Activity Relationship of α-Conotoxin Mr1.1 at the Human α9α10 Nicotinic Acetylcholine Receptor” (J Med Chem, 2022).
pIC50: −log10 of the molar value. Activity calls are given as the source filed them. No cut-off for these calls is given here. Positions of bridges follow the written chain, without caps; N, C: chain ends. Non-standard residues stand in square brackets, D forms with d. Residues, ends and D or L forms follow the SMILES beside them. ξ: configuration not given here. ξDap = NCC(N)C(=O)O

Key:
[1] = biological target: T1, Neuronal acetylcholine receptor; alpha3/beta4 (Homo sapiens) (UniProt P30926+P32297); test: Antagonist activity at human alpha3beta4 nAChR expressed in Xenopus laevis oocytes assessed as inhibition of ACh-induced current amplitude at -80 mV holding potential at 1 uM by two-electrode voltage clamp method; assay type: cell-based; conditions: Oocyte, filed as antagonist
[2] = biological target: Neuronal acetylcholine receptor subunit alpha-7 (Rattus norvegicus) (UniProt Q05941); test: Inhibition of rat neuronal alpha7 nAChR expressed in Xenopus laevis oocytes assessed as inhibition of ACh-induced current amplitude at 1 uM by two-electrode voltage clamp method; assay type: cell-based; conditions: Oocyte, filed as antagonist
Sequence of Neuronal acetylcholine receptor subunit alpha-7 (Rattus norvegicus) (Q05941 whole entry): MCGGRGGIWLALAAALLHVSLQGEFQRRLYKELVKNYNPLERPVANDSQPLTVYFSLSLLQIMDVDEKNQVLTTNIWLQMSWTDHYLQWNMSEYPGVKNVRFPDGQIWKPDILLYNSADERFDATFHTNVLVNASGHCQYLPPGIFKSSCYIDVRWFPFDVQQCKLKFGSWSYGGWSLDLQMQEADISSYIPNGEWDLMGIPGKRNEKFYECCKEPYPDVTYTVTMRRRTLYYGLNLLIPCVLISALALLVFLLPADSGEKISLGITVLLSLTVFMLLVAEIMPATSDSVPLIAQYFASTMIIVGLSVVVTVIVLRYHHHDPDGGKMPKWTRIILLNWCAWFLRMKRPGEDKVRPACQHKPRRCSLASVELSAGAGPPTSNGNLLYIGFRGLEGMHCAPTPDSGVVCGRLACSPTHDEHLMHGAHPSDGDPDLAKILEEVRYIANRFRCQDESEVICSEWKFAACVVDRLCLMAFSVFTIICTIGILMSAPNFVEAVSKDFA

[3] = biological target: T2, Neuronal acetylcholine receptor; alpha3/beta2 (Homo sapiens, UniProt P17787+P32297); test: Antagonist activity at human alpha3beta2 nAChR expressed in Xenopus laevis oocytes assessed as inhibition of ACh-induced current amplitude at -80 mV holding potential at 1 uM by two-electrode voltage clamp method; assay type: cell-based; conditions: Oocyte
T2 sequence (P17787 whole entry): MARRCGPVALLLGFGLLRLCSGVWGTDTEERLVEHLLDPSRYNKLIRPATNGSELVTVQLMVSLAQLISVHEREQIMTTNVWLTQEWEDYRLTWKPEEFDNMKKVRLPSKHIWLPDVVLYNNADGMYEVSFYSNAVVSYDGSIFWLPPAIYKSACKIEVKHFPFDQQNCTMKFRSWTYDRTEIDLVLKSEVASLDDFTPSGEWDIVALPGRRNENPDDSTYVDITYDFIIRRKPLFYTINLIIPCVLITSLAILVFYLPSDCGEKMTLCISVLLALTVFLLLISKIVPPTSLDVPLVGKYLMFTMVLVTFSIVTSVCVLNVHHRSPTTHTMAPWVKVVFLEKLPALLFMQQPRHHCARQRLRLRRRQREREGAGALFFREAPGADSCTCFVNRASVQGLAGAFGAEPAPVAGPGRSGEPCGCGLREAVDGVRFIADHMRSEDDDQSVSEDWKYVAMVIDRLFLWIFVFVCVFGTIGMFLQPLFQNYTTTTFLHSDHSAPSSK
T2 sequence (P32297 whole entry): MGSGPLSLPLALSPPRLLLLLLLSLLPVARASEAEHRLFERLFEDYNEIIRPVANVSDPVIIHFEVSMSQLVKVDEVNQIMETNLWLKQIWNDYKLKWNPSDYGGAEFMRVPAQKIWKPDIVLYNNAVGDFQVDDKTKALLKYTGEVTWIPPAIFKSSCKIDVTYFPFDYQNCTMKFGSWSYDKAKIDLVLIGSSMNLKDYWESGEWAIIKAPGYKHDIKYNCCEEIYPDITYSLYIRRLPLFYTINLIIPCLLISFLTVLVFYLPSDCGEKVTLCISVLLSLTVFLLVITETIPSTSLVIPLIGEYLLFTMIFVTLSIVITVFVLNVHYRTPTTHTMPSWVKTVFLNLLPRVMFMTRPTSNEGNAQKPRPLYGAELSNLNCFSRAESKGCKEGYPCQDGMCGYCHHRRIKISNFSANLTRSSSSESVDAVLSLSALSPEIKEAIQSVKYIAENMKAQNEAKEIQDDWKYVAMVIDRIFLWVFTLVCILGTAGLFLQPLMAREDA

[4] = biological target: T2, Neuronal acetylcholine receptor; alpha3/beta2; test: Antagonist activity at human alpha3beta2 nAChR expressed in Xenopus laevis oocytes assessed as inhibition of ACh-induced current amplitude at -80 mV holding potential at 10 uM by two-electrode voltage clamp method; assay type: cell-based; conditions: Oocyte, filed as antagonist
[5] = biological target: T3, Neuronal acetylcholine receptor subunit alpha-7 (Homo sapiens, UniProt P36544); test: Antagonist activity at human alpha7 nAChR expressed in Xenopus laevis oocytes assessed as inhibition of ACh-induced current amplitude at -80 mV holding potential at 10 uM by two-electrode voltage clamp method; assay type: cell-based; conditions: Oocyte, filed as antagonist
T3 sequence (P36544 whole entry): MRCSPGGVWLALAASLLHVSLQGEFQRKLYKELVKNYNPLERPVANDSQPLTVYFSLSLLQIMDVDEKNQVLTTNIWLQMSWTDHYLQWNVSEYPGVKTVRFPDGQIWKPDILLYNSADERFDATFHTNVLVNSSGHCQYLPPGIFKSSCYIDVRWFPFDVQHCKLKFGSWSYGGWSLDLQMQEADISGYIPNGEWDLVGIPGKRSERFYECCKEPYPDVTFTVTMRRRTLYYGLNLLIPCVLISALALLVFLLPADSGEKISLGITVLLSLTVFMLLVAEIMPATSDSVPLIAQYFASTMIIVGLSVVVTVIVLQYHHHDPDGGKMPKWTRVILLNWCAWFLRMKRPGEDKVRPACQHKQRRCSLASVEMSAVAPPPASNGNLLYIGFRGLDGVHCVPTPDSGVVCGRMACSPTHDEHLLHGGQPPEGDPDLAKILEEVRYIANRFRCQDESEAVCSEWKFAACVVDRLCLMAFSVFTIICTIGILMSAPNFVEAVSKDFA

[6] = biological target: T4, Neuronal acetylcholine receptor; alpha4/beta2 (Homo sapiens) (UniProt P17787+P43681); test: Antagonist activity at human alpha4beta2 nAChR expressed in Xenopus laevis oocytes assessed as inhibition of ACh-induced current amplitude at -80 mV holding potential at 10 uM by two-electrode voltage clamp method; assay type: cell-based; conditions: Oocyte, filed as antagonist
[7] = biological target: T1, Neuronal acetylcholine receptor; alpha3/beta4 (Homo sapiens); test: Antagonist activity at human alpha3beta4 nAChR expressed in Xenopus laevis oocytes assessed as inhibition of ACh-induced current amplitude at -80 mV holding potential at 10 uM by two-electrode voltage clamp method; assay type: cell-based; conditions: Oocyte, filed as antagonist
[8] = biological target: T5, Neuronal acetylcholine receptor; alpha9/alpha10 (Homo sapiens) (UniProt Q9UGM1+Q9GZZ6); test: Antagonist activity at human alpha9alpha10 nAChR expressed in Xenopus laevis oocytes assessed as inhibition of ACh-induced current amplitude at -80 mV holding potential at 10 uM by two-electrode voltage clamp method; assay type: cell-based; conditions: Oocyte, filed as antagonist
[9] = biological target: T1, Neuronal acetylcholine receptor; alpha3/beta4 (Homo sapiens); test: Antagonist activity at human alpha3beta4 nAChR expressed in Xenopus laevis oocytes assessed as inhibition of ACh-induced current amplitude at -80 mV holding potential in presence of BAPTA-AM at 10 uM by two-electrode voltage clamp method; assay type: cell-based; conditions: Oocyte, filed as antagonist
[10] = biological target: T5, Neuronal acetylcholine receptor; alpha9/alpha10 (Homo sapiens); test: Antagonist activity at human alpha9alpha10 nAChR expressed in Xenopus laevis oocytes assessed as inhibition of ACh-induced current amplitude at -80 mV holding potential at 1 uM by two-electrode voltage clamp method; assay type: cell-based; conditions: Oocyte
[11] = biological target: Neuronal acetylcholine receptor; alpha9/alpha10 (Homo sapiens, UniProt Q9GZZ6+Q9UGM1); test: Antagonist activity at human alpha9alpha10 nAChR expressed in Xenopus laevis oocytes assessed as inhibition of ACh-induced current amplitude at -80 mV holding potential by two-electrode voltage clamp method; assay type: cell-based, Oocyte
Sequence of Neuronal acetylcholine receptor; alpha9/alpha10 (Q9UGM1 whole entry): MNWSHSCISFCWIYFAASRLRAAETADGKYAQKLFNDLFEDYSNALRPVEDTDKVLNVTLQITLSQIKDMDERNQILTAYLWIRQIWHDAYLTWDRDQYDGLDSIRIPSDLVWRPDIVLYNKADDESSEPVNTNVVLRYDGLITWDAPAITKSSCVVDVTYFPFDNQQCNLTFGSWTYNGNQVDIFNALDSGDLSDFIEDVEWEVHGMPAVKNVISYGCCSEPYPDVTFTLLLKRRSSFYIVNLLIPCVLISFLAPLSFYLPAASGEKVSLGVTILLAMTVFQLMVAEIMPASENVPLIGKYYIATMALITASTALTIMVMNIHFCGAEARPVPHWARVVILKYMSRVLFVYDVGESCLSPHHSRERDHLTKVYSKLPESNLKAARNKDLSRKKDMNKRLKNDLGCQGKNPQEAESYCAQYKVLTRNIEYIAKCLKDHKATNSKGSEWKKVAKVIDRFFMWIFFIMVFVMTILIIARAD
Sequence of Neuronal acetylcholine receptor; alpha9/alpha10 (Q9GZZ6 whole entry): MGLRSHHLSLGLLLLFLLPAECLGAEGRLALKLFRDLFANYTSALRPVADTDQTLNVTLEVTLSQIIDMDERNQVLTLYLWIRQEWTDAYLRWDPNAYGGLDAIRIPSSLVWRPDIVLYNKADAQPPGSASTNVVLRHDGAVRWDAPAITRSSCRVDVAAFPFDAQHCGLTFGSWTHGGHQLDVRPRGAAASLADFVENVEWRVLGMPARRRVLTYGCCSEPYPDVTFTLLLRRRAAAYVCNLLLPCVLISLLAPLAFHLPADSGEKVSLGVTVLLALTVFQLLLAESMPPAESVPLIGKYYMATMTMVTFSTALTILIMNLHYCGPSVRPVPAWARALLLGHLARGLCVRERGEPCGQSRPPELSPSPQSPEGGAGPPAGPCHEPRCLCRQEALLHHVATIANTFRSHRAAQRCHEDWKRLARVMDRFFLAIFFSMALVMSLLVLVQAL

Oocyte = test: Antagonist activity at rat alpha9alpha10 nAChR expressed in Xenopus laevis oocytes assessed as inhibition of ACh-induced current amplitude at 10 uM by two-electrode voltage clamp method; assay type: cell-based; conditions: filed as antagonist
[12] = Antagonist activity at rat alpha9alpha10 nAChR expressed in Xenopus laevis oocytes assessed as inhibition of ACh-induced current amplitude by two-electrode voltage clamp method; assay type: cell-based; conditions: Oocyte
[13] = biological target: T2, Neuronal acetylcholine receptor; alpha3/beta2; test: Antagonist activity at human alpha3beta2 nAChR expressed in Xenopus laevis oocytes assessed as inhibition of ACh-induced current amplitude at -80 mV holding potential by two-electrode voltage clamp method; assay type: cell-based, Oocyte
[14] = biological target: T3, Neuronal acetylcholine receptor subunit alpha-7; test: Antagonist activity at human alpha7 nAChR expressed in Xenopus laevis oocytes assessed as inhibition of ACh-induced current amplitude at -80 mV holding potential at 1 uM by two-electrode voltage clamp method; assay type: cell-based; conditions: Oocyte
[15] = biological target: T2, Neuronal acetylcholine receptor; alpha3/beta2; test: Antagonist activity at human alpha3beta2 nAChR expressed in Xenopus laevis oocytes assessed as inhibition of ACh-induced current amplitude at -80 mV holding potential in presence of BAPTA-AM at 10 uM by two-electrode voltage clamp method; assay type: cell-based; conditions: Oocyte, filed as antagonist
[16] = biological target: T4, Neuronal acetylcholine receptor; alpha4/beta2 (Homo sapiens); test: Antagonist activity at human alpha4beta2 nAChR expressed in Xenopus laevis oocytes assessed as inhibition of ACh-induced current amplitude at -80 mV holding potential at 1 uM by two-electrode voltage clamp method; assay type: cell-based; conditions: Oocyte, filed as antagonist
[17] = biological target: T5, Neuronal acetylcholine receptor; alpha9/alpha10 (Homo sapiens); test: Antagonist activity at human alpha9alpha10 nAChR expressed in Xenopus laevis oocytes assessed as inhibition of ACh-induced current amplitude at -80 mV holding potential at 100 nM by two-electrode voltage clamp method; assay type: cell-based; conditions: Oocyte
[18] = biological target: T2, Neuronal acetylcholine receptor; alpha3/beta2; test: Antagonist activity at human alpha3beta2 nAChR expressed in Xenopus laevis oocytes assessed as inhibition of ACh-induced current amplitude at -80 mV holding potential at 100 nM by two-electrode voltage clamp method; assay type: cell-based; conditions: Oocyte, filed as antagonist
[19] = biological target: T3, Neuronal acetylcholine receptor subunit alpha-7; test: Antagonist activity at human alpha7 nAChR expressed in Xenopus laevis oocytes assessed as inhibition of ACh-induced current amplitude at -80 mV holding potential by two-electrode voltage clamp method; assay type: cell-based, Oocyte
[20] = biological target: T4, Neuronal acetylcholine receptor; alpha4/beta2 (Homo sapiens); test: Antagonist activity at human alpha4beta2 nAChR expressed in Xenopus laevis oocytes assessed as inhibition of ACh-induced current amplitude at -80 mV holding potential in presence of BAPTA-AM at 100 nM by two-electrode voltage clamp method; assay type: cell-based; conditions: Oocyte
Mus musculus [21] = test: Analgesic activity in chronic constriction injury-induced mechanical pain mouse model assessed as increase in paw withdrawal latency at 0.5 ug/kg measured after 12 hrs; assay type: functional, organism-based; conditions: dose 5.0 µg/kg
[22] = biological target: T3, Neuronal acetylcholine receptor subunit alpha-7; test: Antagonist activity at human alpha7 nAChR expressed in Xenopus laevis oocytes assessed as inhibition of ACh-induced current amplitude at -80 mV holding potential in presence of BAPTA-AM by two-electrode voltage clamp method; assay type: cell-based, Oocyte
[23] = biological target: T3, Neuronal acetylcholine receptor subunit alpha-7; test: Antagonist activity at human alpha7 nAChR expressed in Xenopus laevis oocytes assessed as inhibition of ACh-induced current amplitude at -80 mV holding potential at 100 nM by two-electrode voltage clamp method; assay type: cell-based; conditions: Oocyte, filed as antagonist
Rattus norvegicus = organism: Rattus norvegicus; test: Analgesic activity in chronic constriction injury-induced mechanical pain rat model assessed as increase in paw withdrawal latency measured after 24 hrs; assay type: functional, organism-based; conditions: DDE = dose-dependent effect
Mus musculus [24] = test: Analgesic activity in chronic constriction injury-induced mechanical pain mouse model assessed as increase in paw withdrawal latency at 25 ug/kg measured after 24 hrs; assay type: functional, organism-based; conditions: dose 25.0 µg/kg
[25] = biological target: T1, Neuronal acetylcholine receptor; alpha3/beta4 (Homo sapiens); test: Antagonist activity at human alpha3beta4 nAChR expressed in Xenopus laevis oocytes assessed as inhibition of ACh-induced current amplitude at -80 mV holding potential at 100 nM by two-electrode voltage clamp method; assay type: cell-based; conditions: Oocyte
Mus musculus [26] = test: Analgesic activity in chronic constriction injury-induced mechanical pain mouse model assessed as increase in paw withdrawal latency at 2.5 ug/kg measured after 12 hrs; assay type: functional, organism-based; conditions: dose 2.5 µg/kg
[27] = Toxicity in mouse assessed as abnormal motor behavior; conditions: in vivo

CC[C@H](C)[C@@H]1NC(=O)[C@H](CC(=O)O)NC(=O)[C@@H]2CCCN2C(=O)[C@H](CC(N)=O)NC(=O)[C@H](CC(N)=O)NC(=O)[C@H](C(C)C)NC(=O)[C@H](CO)NC(=O)[C@@H]2CSSC[C@H](NC(=O)CN)C(=O)N[C@@H](CSSC[C@@H](C(N)=O)NC1=O)C(=O)N[C@@H](CO)C(=O)N[C@@H](Cc1cnc[nH]1)C(=O)N1CCC[C@H]1C(=O)N[C@@H](C)C(=O)N2 (H-GCCSHPACSVNNPDIC-NH2; disulfide 2-8, 3-16)
inhibition [1]: 60%
inhibition [2]: 65%
inhibition [3]: 90%
inhibition [4]: > 90%
inhibition [5]: 80%
inhibition [6]: 40%
inhibition [7]: > 90%
inhibition [8]: > 90%
inhibition [9]: 50%
inhibition ([10]; filed as antagonist): 95%
pIC50 [11]: 7.04
inhibition (Oocyte): 100%
pIC50 [12]: 8.08
pIC50 [13]: 6.66
inhibition [14]: 25%
inhibition [15]: 50%
inhibition [16]: Active

CC[C@H](C)[C@@H]1NC(=O)[C@H](CCC(=O)O)NC(=O)[C@@H]2CCCN2C(=O)[C@H](CC(N)=O)NC(=O)[C@H](CC(N)=O)NC(=O)[C@H](C(C)C)NC(=O)[C@H](CO)NC(=O)[C@@H]2CSSC[C@H](NC(=O)CN)C(=O)N[C@@H](CSSC[C@@H](C(N)=O)NC1=O)C(=O)N[C@@H](CO)C(=O)N[C@@H](Cc1cnc[nH]1)C(=O)N1CCC[C@H]1C(=O)N[C@@H](C)C(=O)N2 (H-GCCSHPACSVNNPEIC-NH2; disulfide 2-8, 3-16)
inhibition [10]: 20%
inhibition ([10]; filed as antagonist): 40%

CC[C@H](C)[C@@H]1NC(=O)[C@H](CC(=O)O)NC(=O)[C@@H]2CCCN2C(=O)[C@H](CC(N)=O)NC(=O)[C@H](CC(N)=O)NC(=O)[C@H](Cc2ccc(O)cc2)NC(=O)[C@H](CO)NC(=O)[C@@H]2CSSC[C@H](NC(=O)CN)C(=O)N[C@@H](CSSC[C@@H](C(N)=O)NC1=O)C(=O)N[C@@H](CO)C(=O)N[C@@H](Cc1cnc[nH]1)C(=O)N1CCC[C@H]1C(=O)N[C@@H](C)C(=O)N2 (H-GCCSHPACSYNNPDIC-NH2; disulfide 2-8, 3-16)
inhibition [10]: 20%
inhibition [17]: 25%

CC[C@H](C)[C@@H]1NC(=O)[C@H](CC(=O)O)NC(=O)[C@@H]2CCCN2C(=O)[C@H](CC(N)=O)NC(=O)[C@H](CC(N)=O)NC(=O)[C@H](C(C)C)NC(=O)[C@H](CO)NC(=O)[C@@H]2CSSC[C@H](NC(=O)CN)C(=O)N[C@@H](CSSC[C@@H](C(N)=O)NC1=O)C(=O)NC(CN)C(=O)N[C@@H](Cc1cnc[nH]1)C(=O)N1CCC[C@H]1C(=O)N[C@@H](C)C(=O)N2 (stereo partly drawn) (H-GCC[ξDap]HPACSVNNPDIC-NH2; disulfide 2-8, 3-16)
inhibition ([3]; filed as antagonist): > 95%
inhibition [18]: 85%
pIC50 [19]: 6.59
inhibition [20]: 5%
pIC50 [11]: 8.40
Activity (Mus musculus [21]): Active
pIC50 [22]: 6.58
pIC50 [12]: 8.77
pIC50 [13]: 7.69
inhibition [23]: 90%
inhibition ([17]; filed as antagonist): > 85%
Activity (Rattus norvegicus): Dde
Activity (Mus musculus [24]): Active
inhibition [25]: 5%
Activity (Mus musculus [26]): Active
Activity [27]: Non-Toxic

CC[C@H](C)[C@@H]1NC(=O)[C@H](CC(=O)O)NC(=O)[C@@H]2CCCN2C(=O)[C@H](CC(N)=O)NC(=O)[C@H](CC(N)=O)NC(=O)[C@H](C(C)C)NC(=O)C(CN)NC(=O)[C@@H]2CSSC[C@H](NC(=O)CN)C(=O)N[C@@H](CSSC[C@@H](C(N)=O)NC1=O)C(=O)NC(CN)C(=O)N[C@@H](Cc1cnc[nH]1)C(=O)N1CCC[C@H]1C(=O)N[C@@H](C)C(=O)N2 (stereo partly drawn) (H-GCC[ξDap]HPAC[ξDap]VNNPDIC-NH2; disulfide 2-8, 3-16)
inhibition ([17]; filed as antagonist): > 95%
